Test system: iPSC-CMs
Test: Paced action potentials (perforated patch clamp; control, EDC or ODC with added IK1) after E-4031 addition
Type: cell-based, human
Conditions: for APD90 after E-4031 addition: 500 nM E-4031 perfused 2 minutes, all cells, FIG. 7A
Description: Cor.4U hiPSC-CMs (Axiogenesis, Cologne, Germany) were thawed, seeded, and maintained according to the protocols provided by the manufacturer. The cells were seeded on 0.5% gelatin-coated 8 mm coverslips and plated at 100,000 cells/mL. Cells were incubated for at least 7 days post thaw prior to use for experiments.
Adenoviral vector was constructed using the Addgene (Cambridge, Mass.) plasmid pAAV-CAG-ArchT-GFP, deposited by K. Deisseroth's laboratory (plasmid 20940) (Ambrosi C M, et al. Methods Mol Biol. 2014, 1181:215-28; Yu J, et al. Methods Mol Biol. 2016, 1408:303-17). ArchT was expressed in iPSC-CMs using MOIs of 250-300, as described in previously published protocols using an adenovirus (Ambrosi C M, et al. Methods Mol Biol. 2014, 1181:215-28; Yu J, et al. Methods Mol Biol. 2016, 1408:303-1). Determination of successful infection was confirmed via eGFP fluorescence. Functionality of ArchT was confirmed by illuminating the cells with an LED (M565L3, ThorLabs) at 595 nm through a 40× objective and observing the amount of hyperpolarization of the membrane potential under current clamp. Stability of IArchT was measured with a voltage and light clamp protocol over time to investigate rundown with ArchT illumination (FIGS. 18A-18B).
Borosilicate glass pipettes were pulled to a resistance of 1-3 MΩ using a flaming/brown micropipette puller (Model P-1000, Sutter Instrument). The pipettes were filled with intracellular solution containing (mM) 10 NaCl, 130 KCl, 1 MgCl2, 10 CaCl2, 5.5 Dextrose, 10 HEPES. For perforated patch, the pipette was first backfilled by dipping the pipette tip into the intracellular solution for 10 seconds. Only the very tip contained the intracellular solution without any gramicidin to minimize the amount of gramicidin exiting the pipette prior to obtaining a giga-ohm seal. The pipette was then filled with the intracellular solution containing 8 μg/mL gramicidin passed through a 0.25 μm filter. […] The high calcium concentration in the intracellular pipette solution serves to verify the integrity of the patch as patch rupture under these conditions would lead to immediate cell contracture (Ishihara K, et al. J Physiol. 2004, 540(3):831-41). The coverslips containing iPSC-CMs were placed in the bath and constantly perfused with an extracellular solution at 37° C. containing (mM) 137 NaCl, 5.4 KCl, 1 MgSO4, 2 CaCl2, 10 Dextrose, 10 HEPES. GFP-expressing single cells that were visibly contracting were chosen for experiments. Patch-clamp measurements were made by a patch-clamp amplifier (Model 2400, A-M Systems, Inc) controlled by the Real Time eXperiment Interface (RTXI) to coordinate the amplifier via the data acquisition card (PCI-6025E, National Instruments). The voltage was corrected for the calculated liquid junction potential of −2.8 mV. RTXI was also used to control the LED light intensity. The series resistance was less than 10 MΩ and was not compensated.
To test the feasibility of using ArchT to inject a target current, stimulated action potentials under the EDC system were compared to those of the ODC platform at three different pacing frequencies: 0.5, 1 and 2 Hz. The cells were stimulated 10 times at 0.5, 1 and 2 Hz sequentially under three conditions (the order of which was randomized): (A) control, in which no additional current was added, (B) addition of Itarget with EDC, and (C) and addition of Itarget with ODC.
After the cells had undergone the aforementioned pacing protocol under the same three conditions, 500 nM E-4031 (a class III antiarrhythmic drug that blocks potassium channels, primarily of the human ether-a-go-go related gene (hERG) type) was perfused into the bath containing the coverslip of iPSC-CMs for 2 minutes. Experiments were again conducted under the same pacing protocol and conditions to measure the effect of IKr inhibition. […]

Q: `Cc1cccc(CCN2CCC(C(=O)c3ccc(NS(C)(=O)=O)cc3)CC2)n1` [E-4031] was tested. Which “APD with E-4031 addition” value (500 nM E-4031, example cell 13 paced at 0.5 Hz, control, EDC and ODC conditions, FIG. 6A-C) did it give?
A: Its value is “increases”.

Q: What about the “drug-induced APD prolongation, control (without dynamic clamp) cells compared to EDC and ODC” value (500 nM E-4031, paced at 0.5 Hz) of the same molecule?
A: Its value is “more dramatic”.

Q: And the “triangulation (APD90-APD30), control (without dynamic clamp) cells compared to EDC and ODC” value (500 nM E-4031, paced at 0.5 Hz)?
A: Its value is “larger”.

Q: And the “APD90 after E-4031 addition” value (paced at 0.5 Hz, Itarget (IK1) added with EDC)?
A: Its value is “increased”.

Q: And the “APD90 after E-4031 addition” value (paced at 0.5 Hz, Itarget (IK1) added with ODC)?
A: Its value is “increased”.

Q: What about the “APD90 after E-4031 addition” value (paced at 0.5 Hz, control (no current addition)) of the same molecule?
A: The value was “increased”.

Source: patent US20220010279A1, “KITS AND METHODS FOR PERFORMING OPTICAL DYNAMIC CLAMP ON EXCITABLE CELLS” (CORNELL UNIVERSITY, priority 2018, published 2022)
